Results on 19 molecules are retold here after PMC7170309, “Imidazopyridine-fused [1,3]diazepinones: modulations of positions 2 to 4 and their impacts on the anti-melanoma activity” (Journal of Enzyme Inhibition and Medicinal Chemistry, 2020).

A short description of data set [1]: Calculated physicochemical parameters (molsoft cheminformatic tool). The settings on record: predicted. As to the method:
Data set of physicochemical properties (cLogP, TPSA and molecular volume, Table 2) were calculated using the online available molsoft cheminformatic tool[23]. IC50 values of the compounds included in the test are presented in Table 1 for the correlations between IC50 and physicochemical properties of compounds modified in position 2 (Figure 2), and in Table S1 (SI) for the correlations between in vitro anti-cancer activity of JMV5038, compound 5 and […] on the NCI cell line panel (Figure 4). Pearson’s correlation coefficient r and level of significant p values were calculated using Origin Pro 2019.

A further data set concerns A375 melanoma cells. The data set can be described thus: Neutral red uptake (NRU) viability assay, A375. It counts as cell-based, human. The following applies: for IC50: Homo sapiens, A-375, 72 h, mean ± SD of three experiments; for cytotoxic activity on A375 (in words): up to 40 µM. Here is the method: (§1) Melanoma human cancer cell line (A375 and MDA-MB-435) were obtained from ATCC. The NIH-3T3 cell line was generously gifted by the ANSM (French National Agency for Medicines and Health Products Safety, Vendargues, France). Cells were cultured in Dulbecco’s Modified Eagle Medium (DMEM, Sigma Aldrich) supplemented with 10% heat-inactivated foetal calf serum (FCS, Gibco), 2 mM glutamax (Gibco), 100 IU/mL penicillin G sodium (Sigma Aldrich), 100 lU/mL streptomycin sulphate (Sigma Aldrich). The cells were allowed to grow at 37 °C in a fully humidified atmosphere containing 5% CO2.
(§2) A viability assay was used to evaluate the cytotoxic activity on A375 and MDA-MB-435 melanoma cells as previously described. According to OCDE/ICCVAM guidance n°129, NRU assay was also used to evaluate the toxicity on the non-cancerous NIH-3T3 cells. Cells were seeded at a final concentration of 2000 cells/well (A375), 3000 cells/well (NIH-3T3) or 7500 cells/well (MDA-MB-435) in 96-well microtiter plates for 24 h. Then, cells were exposed to two negative controls (1% DMSO in culture medium (vehicle) and culture medium alone), or to different compounds freshly dissolved in DMSO, in a range of concentration from 0.01 to 40 µM (six wells per concentration). After 72 h of incubation, cells were stained with new medium containing 50 µg/mL of neutral red (3-amino-7-dimethylamino-2-methylphenazine hydrochloride, Sigma Aldrich) at 37 °C for 2 h. The neutral red medium solution was then removed and the wells were washed with PBS. Finally, 100 µL of solution containing ethanol, acetic acid and water (50/1/49 v/v/v respectively) were added into the wells and the absorbance was measured at 540 nm using the microplate reader 352 Multiscan MS (Labsystems). Cell survival rates were normalised to the absorbance values of untreated control cells. IC50 was obtained using a logistic regression model on Graphpad Prism 5.0 software. Results are given as the mean ± standard deviation (SD) of three independent experiments. Statistical analysis was performed using the Student’s t-test.

Data set [2] has as its system NIH-3T3 non-cancerous cells. The data set can be described thus: Neutral red uptake (NRU) toxicity assay, NIH-3T3. It counts as cell-based. The following applies: non-cancerous mouse fibroblasts. Here is the method:
as §1, §2
Then, all active compounds on the two melanoma cell lines (IC50 < 40 µM) were assessed on the NIH-3T3 mouse fibroblast cell line, in order to check the toxicity of our compounds on non-cancerous cells. […] As a possible modification of the mechanism of action was hypothesised for these two derivatives (see above), this phenomenon could probably be also correlated with the cytotoxicity observed on the NIH-3T3 cell line.

For data set [3], the system named is MDA-MB-435 melanoma cells. The experiment in a line: Neutral red uptake (NRU) viability assay, MDA-MB-435. It counts as cell-based, human. The following applies: for IC50: Homo sapiens, MDA-MB-435, 72 h, mean ± SD of three experiments; for IC50 / cytotoxic activity on MDA-MB-435 (in words): NRU assay; for cytotoxic activity on MDA-MB-435 (in words): up to 40 µM; for times less active on MDA-MB-435 than on A375 cells: ratio of NRU IC50 values. As to the method: as §1, §2

Data set [4] relates to MDA-MB-435 melanoma cells. Further details: method as in PMID 27871038. The following applies: previously described naphthyl analogues; read-out: IC50 on MDA-MB-435 cell line; cited from earlier work.

Where two headings read alike, the source gives them in different places. Bounds are passed on as bounds.

`C#Cc1ccc(C2=Nc3nc4ccccn4c3C(=O)[C@H](C)N2)cc1` [4′, (4S)-4-methyl-2–(4-ethynylphenyl)-3,4-dihydro-5H-pyrido[1’,2’:1,2]imidazo[4,5-d][1,3]diazepin-5-one] came in with a melting point of 128 to 129 °C. Also, the “molecular volume increase compared to JMV5038” value in data set [1] is on record as 2%. In the data set on A375 melanoma cells, this molecule came in with an IC50 of 10.2 ± 0.55 µM. Moreover, in data set [2] (Mus musculus, NIH3T3, 72 h), the IC50 is more than 40 µM. Also, the IC50 in data set [3] was 5.14 ± 0.08 µM.
With `O=C(O)C[C@@H]1NC(c2ccc(Br)cc2)=Nc2nc3ccccn3c2C1=O` [Compound 21, (4S)-[2-(4-bromophenyl)-5-oxo-4,5-dihydro-3H-pyrido[1’,2’:1,2]imidazo[4,5-d][1,3]diazepin-4-yl]acetic acid], in the data set with A375 melanoma cells, the IC50 was more than 40 µM and the “cytotoxic activity on A375 (in words)” value was “inactive”. In addition, in data set [3], the IC50 was more than 40 µM and the “cytotoxic activity on MDA-MB-435 (in words)” value was “inactive”.
Regarding `C#CC[C@@H]1NC(c2ccc(Br)cc2)=Nc2nc3ccccn3c2C1=O` [Compound 14, (4S)-4-propargyl-2-(4-bromophenyl)-3,4-dihydro-5H-pyrido[1’,2’:1,2]imidazo[4,5-d][1,3]diazepin-5-one], the IC50 with A375 melanoma cells is more than 40 µM; in data set [3], more than 30 µM.
Turning to `[N-]=[N+]=NCCCC[C@@H]1NC(c2ccccc2)=Nc2nc3ccccn3c2C1=O` [Compound 18, (4S)-4-(4-azidobutyl)-2-phenyl-3,4-dihydro-5H-pyrido[1’,2’:1,2]imidazo[4,5-d][1,3]diazepin-5-one], the melting point was 116 to 117 °C. In the data set on A375 melanoma cells, the half-inhibitory concentration (IC50) is more than 40 µM and the “cytotoxic activity on A375 (in words)” value was “totally inactive”. Besides, in data set [3], the concentration for half-maximal inhibition (IC50) is more than 40 µM and the “cytotoxic activity on MDA-MB-435 (in words)” value was “totally inactive”.
On to `C[C@@H]1NC(c2c[nH]c3ccccc23)=Nc2nc3ccccn3c2C1=O` [9′, (4S)-4-methyl-2-indol-3-yl-3,4-dihydro-5H-pyrido[1’,2’:1,2]imidazo[4,5-d][1,3]diazepin-5-one], for which the melting point was 164.5 to 165.5 °C. In addition, in the data set with A375 melanoma cells, the concentration for half-maximal inhibition (IC50) was more than 40 µM and the “cytotoxic activity on A375 (in words)” value is “totally inactive”. In addition, in data set [3], the half-maximal inhibitory concentration (IC50) was more than 40 µM and the “cytotoxic activity on MDA-MB-435 (in words)” value was “totally inactive”.
Regarding `C[C@@H]1NC(c2ccc3ncccc3c2)=Nc2nc3ccccn3c2C1=O` [Compound 10, (4S)-4-methyl-2-quinolin-6-yl-3,4-dihydro-5H-pyrido[1’,2’:1,2]imidazo[4,5-d][1,3]diazepin-5-one], the melting point lay in the range of 165 to 166 °C. In the data set with A375 melanoma cells, this molecule gave an IC50 of 9.76 ± 0.95 µM. The molecule also gave an IC50 in data set [2] (Mus musculus, NIH3T3, 72 h) of more than 40 µM. In addition, in data set [3], the IC50 turned out to be 35.49 ± 0.21 µM and the “times less active on MDA-MB-435 than on A375 cells” value (shortened to “times less active”) is given as “around 3”.
Molecule `C[C@@H]1NC(c2ccc(C#C[Si](C)(C)C)cc2)=Nc2nc3ccccn3c2C1=O` came in with a melting point of 115 to 116 °C.
For `C[C@@H]1NC(c2coc3ccccc23)=Nc2nc3ccccn3c2C1=O` [Compound 7, (4S)-4-methyl-2-benzofuran-3-yl-3,4-dihydro-5H-pyrido[1’,2’:1,2]imidazo[4,5-d][1,3]diazepin-5-one], the melting point lay in the range of 164 to 165 °C. This molecule gave a half-maximal inhibitory concentration (IC50) with A375 melanoma cells of 8.47 ± 0.21 µM. Further, the IC50 in data set [2] (Mus musculus, NIH3T3, 72 h) is more than 40 µM. Besides, in data set [3], half-maximal inhibition (IC50) required 25.92 ± 0.17 µM and the “times less active” value was “around 3”.
For `O=C1c2c(nc3ccccn23)N=C(c2ccc(Br)cc2)N2CCC[C@@H]12` [Compound 20, 7–(4-bromophenyl)-9,10,11,11a-tetrahydro-12H-pyrido[2’,1’:2,3]imidazo[4,5-f]pyrrolo[1,2-c][1,3]diazepin-12-one], the IC50 (with A375 melanoma cells; in data set [3]) was more than 40 µM in each case.
As to `C[C@@H]1NC(c2ccc3ccccc3n2)=Nc2nc3ccccn3c2C1=O` [Compound 11, (4S)-4-methyl-2-quinolin-2-yl-3,4-dihydro-5H-pyrido[1’,2’:1,2]imidazo[4,5-d][1,3]diazepin-5-one], the melting point fell in the range of 170 to 171 °C. The same molecule had an IC50 in the data set with A375 melanoma cells of 15.6 ± 0.7 µM. In data set [2] (Mus musculus, NIH3T3, 72 h), this molecule displayed an IC50 of more than 40 µM. Further, in data set [3], it took 30.71 ± 0.19 µM to reach half-maximal inhibition (IC50) and the “times less active” value is recorded as “around 3”.
`C[C@@H]1NC(c2ccc(C(=O)c3ccccc3)cc2)=Nc2nc3ccccn3c2C1=O` [Compound 6, (4S)-4-methyl-2-(4-benzoylphenyl)-3,4-dihydro-5H-pyrido[1’,2’:1,2]imidazo[4,5-d][1,3]diazepin-5-one]: the melting point was 132 to 133 °C. Besides, in the data set on A375 melanoma cells, the IC50 was more than 40 µM and the “cytotoxic activity on A375 (in words)” value is “totally inactive”. For the same molecule, in data set [3], the concentration for half-maximal inhibition (IC50) is more than 40 µM and the “cytotoxic activity on MDA-MB-435 (in words)” value was “totally inactive”.
With `[N-]=[N+]=NCCCC[C@H]1NC(c2ccc(Br)cc2)=Nc2nc3ccccn3c2C1=O` [Compound 17, (4R)-4-(4-azidobutyl)-2-(4-bromophenyl)-3,4-dihydro-5H-pyrido[1’,2’:1,2]imidazo[4,5-d][1,3]diazepin-5-one], the concentration for half-maximal inhibition (IC50) with A375 melanoma cells is 8.54 ± 0.22 µM; in data set [2] (72 h) it was 13.7 ± 0.34 µM; in data set [2] (Mus musculus, NIH3T3, 72 h) it was approximately 10 µM; in data set [3], 30.9 ± 0.11 µM.
Turning to `C[C@@H]1NC(c2ccc3oc(=O)ccc3c2)=Nc2nc3ccccn3c2C1=O` [Compound 12, (4S)-4-methyl-2-coumarin-6-yl-3,4-dihydro-5H-pyrido[1’,2’:1,2]imidazo[4,5-d][1,3]diazepin-5-one], the melting point was in the range of 132.5 to 133.5 °C. Moreover, in the data set with A375 melanoma cells, the 50% inhibitory concentration (IC50) was more than 40 µM and the “cytotoxic activity on A375 (in words)” value is “totally abolished the activity”. Further, in data set [3], the concentration for half-maximal inhibition (IC50) was more than 40 µM and the “cytotoxic activity on MDA-MB-435 (in words)” value was “totally abolished the activity”.
`CCCC[C@@H]1NC(c2ccc(Br)cc2)=Nc2nc3ccccn3c2C1=O` [Compound 13, (4S)-4-butyl-(4-bromophenyl)-3,4-dihydro-5H-pyrido[1’,2’:1,2]imidazo[4,5-d][1,3]diazepin-5-one]: the IC50 in the data set with A375 melanoma cells was 15.3 ± 1.29 µM; in data set [2] (Mus musculus, NIH3T3, 72 h) it was more than 40 µM; in data set [3] it was 30.83 ± 0.09 µM.
`CC(C)C[C@@H]1NC(c2ccc(Br)cc2)=Nc2nc3ccccn3c2C1=O` [Compound 15, (4S)-4-isobutyl-2-(4-bromophenyl)-3,4-dihydro-5H-pyrido[1’,2’:1,2]imidazo[4,5-d][1,3]diazepin-5-one] had a melting point of 72 to 73 °C. Besides, in the data set on A375 melanoma cells, the IC50 is more than 40 µM. In addition, the IC50 in data set [3] is more than 30 µM.
Regarding `CC1NC(c2cccc3ccccc23)=Nc2nc3ccccn3c2C1=O` (stereo not shown) [1-naphthyl derivative], the IC50 in data set [4] is 1.4 µM.
Consider `C#CCCC(=O)NCCCC[C@@H]1NC(c2ccc(Br)cc2)=Nc2nc3ccccn3c2C1=O` [Compound 22, (4S)-N-{4-[2-(4-bromophenyl)-5-oxo-4,5-dihydro-3H-pyrido[1’,2’:1,2]imidazo[4,5-d][1,3]diazepin-4-yl]butyl}pent-4-ynamide], for which the half-inhibitory concentration (IC50) (with A375 melanoma cells; in data set [3]) was more than 40 µM in each case.
`C[C@@H]1NC(c2cn(C(=O)OC(C)(C)C)c3ccccc23)=Nc2nc3ccccn3c2C1=O` [Compound 9, (4S)-4-methyl-2-(1-boc-indol-3-yl)-3,4-dihydro-5H-pyrido[1’,2’:1,2]imidazo[4,5-d][1,3]diazepin-5-one]: the melting point lay in the range of 155 to 157 °C.
As for `CC1NC(c2ccc3ccccc3c2)=Nc2nc3ccccn3c2C1=O` (stereo not shown) [2-naphthyl derivative], the IC50 in data set [4] is 1.4 µM.

The melting point is the temperature, or range, at which the solid turns liquid. Usually IC50 stands for the concentration needed to halve the response being measured.
